# Assays:
# Format in all cases: functional
# [1] = system: Escherichia coli; assay: Antimicrobial activity against class A extended spectrum beta-lactamase- producing Escherichia coli clinical isolate after 18 to 22 hrs by broth microdilution method
# [2] = system: Escherichia coli; assay: Antimicrobial activity against class A extended spectrum beta-lactamase- and class D OXA- producing Escherichia coli clinical isolate after 18 to 22 hrs by broth microdilution method
# [3] = system: Pseudomonas aeruginosa; assay: Antimicrobial activity against Pseudomonas aeruginosa clinical isolate after 18 to 22 hrs by broth microdilution method
# [4] = system: Serratia marcescens; assay: Antimicrobial activity against AmpC beta-lactamase-producing Serratia marcescens clinical isolate after 18 to 22 hrs by broth microdilution method
# [5] = system: Klebsiella pneumoniae; assay: Antimicrobial activity against Klebsiella pneumoniae clinical isolate after 18 to 22 hrs by broth microdilution method
# [6] = system: Acinetobacter johnsonii; assay: Antimicrobial activity against Acinetobacter johnsonii clinical isolate after 18 to 22 hrs by broth microdilution method
# [7] = system: Staphylococcus aureus; assay: Antimicrobial activity against methicillin-susceptible Staphylococcus aureus clinical isolate after 18 to 22 hrs by broth microdilution method
# [8] = system: Citrobacter koseri; assay: Antimicrobial activity against Citrobacter koseri clinical isolate after 18 to 22 hrs by broth microdilution method
# [9] = system: Acinetobacter junii; assay: Antimicrobial activity against Acinetobacter junii clinical isolate after 18 to 22 hrs by broth microdilution method
# [10] = system: Staphylococcus aureus; assay: Antimicrobial activity against methicillin-resistant Staphylococcus aureus clinical isolate after 18 to 22 hrs by broth microdilution method
# [11] = system: Acinetobacter calcoaceticus; assay: Antimicrobial activity against Acinetobacter calcoaceticus clinical isolate after 18 to 22 hrs by broth microdilution method
# [12] = system: Serratia marcescens; assay: Antimicrobial activity against Serratia marcescens clinical isolate after 18 to 22 hrs by broth microdilution method
# [13] = system: Klebsiella pneumoniae; assay: Antimicrobial activity against class A extended spectrum beta-lactamase- producing Klebsiella pneumoniae clinical isolate after 18 to 22 hrs by broth microdilution method
# [14] = system: Klebsiella aerogenes; assay: Antimicrobial activity against AmpC beta-lactamase-producing Enterobacter aerogenes clinical isolate after 18 to 22 hrs by broth microdilution method
# [15] = system: Enterococcus faecalis; assay: Antimicrobial activity against vancomycin-resistant Enterococcus faecalis clinical isolate after 18 to 22 hrs by broth microdilution method
# [16] = system: Streptococcus pneumoniae; assay: Antimicrobial activity against penicillin-intermediate Streptococcus pneumoniae clinical isolate after 18 to 22 hrs by broth microdilution method
# [17] = system: Enterobacter cloacae; assay: Antimicrobial activity against AmpC beta-lactamase-producing Enterobacter cloacae clinical isolate after 18 to 22 hrs by broth microdilution method
# [18] = system: Klebsiella pneumoniae; assay: Antimicrobial activity against class A extended spectrum beta-lactamase- and class D OXA- producing Klebsiella pneumoniae clinical isolate after 18 to 22 hrs by broth microdilution method
# [19] = system: Burkholderia cepacia; assay: Antimicrobial activity against Burkholderia cepacia clinical isolate after 18 to 22 hrs by broth microdilution method
# [20] = system: Morganella morganii; assay: Antimicrobial activity against Morganella morganii clinical isolate after 18 to 22 hrs by broth microdilution method
# [21] = system: Providencia rettgeri; assay: Antimicrobial activity against Providencia rettgeri clinical isolate after 18 to 22 hrs by broth microdilution method
# [22] = system: Proteus vulgaris; assay: Antimicrobial activity against Proteus vulgaris clinical isolate after 18 to 22 hrs by broth microdilution method
# [23] = system: Streptococcus pyogenes; assay: Antimicrobial activity against Streptococcus pyogenes clinical isolate after 18 to 22 hrs by broth microdilution method
# [24] = system: Klebsiella aerogenes; assay: Antimicrobial activity against Enterobacter aerogenes clinical isolate after 18 to 22 hrs by broth microdilution method
# [25] = system: Acinetobacter baumannii; assay: Antimicrobial activity against Acinetobacter baumannii clinical isolate after 18 to 22 hrs by broth microdilution method
# [26] = system: Citrobacter freundii; assay: Antimicrobial activity against AmpC beta-lactamase-producing Citrobacter freundii clinical isolate after 18 to 22 hrs by broth microdilution method
# [27] = system: Enterococcus avium; assay: Antimicrobial activity against Enterococcus avium clinical isolate after 18 to 22 hrs by broth microdilution method
# [28] = system: Haemophilus influenzae; assay: Antimicrobial activity against beta-lactamase-producing Haemophilus influenzae clinical isolate after 18 to 22 hrs by broth microdilution method
# [29] = system: Staphylococcus epidermidis; assay: Antimicrobial activity against methicillin-susceptible Staphylococcus epidermidis clinical isolate after 18 to 22 hrs by broth microdilution method
# [30] = system: Acinetobacter haemolyticus; assay: Antimicrobial activity against Acinetobacter haemolyticus clinical isolate after 18 to 22 hrs by broth microdilution method
# [31] = system: Enterococcus faecium; assay: Antimicrobial activity against Enterococcus faecium clinical isolate after 18 to 22 hrs by broth microdilution method
# [32] = system: Enterococcus faecalis; assay: Antimicrobial activity against Enterococcus faecalis clinical isolate after 18 to 22 hrs by broth microdilution method
# [33] = system: Enterococcus gallinarum; assay: Antimicrobial activity against Enterococcus gallinarum clinical isolate after 18 to 22 hrs by broth microdilution method
# [34] = system: Escherichia coli; assay: Antimicrobial activity against AmpC beta-lactamase-producing Escherichia coli clinical isolate after 18 to 22 hrs by broth microdilution method
# [35] = system: Staphylococcus haemolyticus; assay: Antimicrobial activity against Staphylococcus haemolyticus clinical isolate after 18 to 22 hrs by broth microdilution method
# [36] = system: Haemophilus influenzae; assay: Antimicrobial activity against beta-lactamase-negative Haemophilus influenzae clinical isolate after 18 to 22 hrs by broth microdilution method
# [37] = system: Citrobacter freundii; assay: Antimicrobial activity against Citrobacter freundii clinical isolate after 18 to 22 hrs by broth microdilution method
# [38] = system: Streptococcus pneumoniae; assay: Antimicrobial activity against penicillin-susceptible Streptococcus pneumoniae clinical isolate after 18 to 22 hrs by broth microdilution method
# [39] = system: Enterococcus casseliflavus; assay: Antimicrobial activity against Enterococcus casseliflavus clinical isolate after 18 to 22 hrs by broth microdilution method
# [40] = system: Enterobacter cloacae; assay: Antimicrobial activity against Enterobacter cloacae clinical isolate after 18 to 22 hrs by broth microdilution method
smiles,measurement,setting,value
C[C@H]1COc2c(N3CCN(C)CC3)c(F)cc3c(=O)c(C(=O)O)cn1c23.C[C@H]1COc2c(N3CCN(C)CC3)c(F)cc3c(=O)c(C(=O)O)cn1c23.O [LEVOFLOXACIN],MIC50,[1],8 µg/mL
same,MIC90,[1],> 16 µg/mL
same,MIC50,[2],16 µg/mL
same,MIC90,[2],> 16 µg/mL
same,MIC50,[3],1 µg/mL
same,MIC90,[3],> 16 µg/mL
same,MIC50,[4],0.12 µg/mL
same,MIC90,[4],8 µg/mL
same,MIC50,[5],0.06 µg/mL
same,MIC90,[5],0.5 µg/mL
same,MIC50,[6],0.12 µg/mL
same,MIC90,[6],2 µg/mL
same,MIC50,[7],0.25 µg/mL
same,MIC90,[7],0.5 µg/mL
same,MIC50,[8],0.03 µg/mL
same,MIC90,[8],0.06 µg/mL
same,MIC50,[9],0.12 µg/mL
same,MIC90,[9],2 µg/mL
same,MIC50,[10],4 µg/mL
same,MIC90,[10],> 16 µg/mL
same,MIC50,[11],8 µg/mL
same,MIC90,[11],16 µg/mL
same,MIC50,[12],0.12 µg/mL
same,MIC90,[12],4 µg/mL
same,MIC50,[13],0.5 µg/mL
same,MIC90,[13],8 µg/mL
same,MIC50,[14],0.12 µg/mL
same,MIC90,[14],8 µg/mL
same,MIC50,[15],2 µg/mL
same,MIC50,[16],0.5 µg/mL
same,MIC90,[16],1 µg/mL
same,MIC50,[17],0.12 µg/mL
same,MIC90,[17],8 µg/mL
same,MIC50,[18],1 µg/mL
same,MIC90,[18],> 16 µg/mL
same,MIC50,[19],2 µg/mL
same,MIC90,[19],4 µg/mL
same,MIC50,[20],0.03 µg/mL
same,MIC90,[20],> 16 µg/mL
same,MIC50,[21],1 µg/mL
same,MIC90,[21],16 µg/mL
same,MIC,[22],0.03 µg/mL
same,MIC50,[22],0.03 µg/mL
same,MIC90,[22],0.12 µg/mL
same,MIC50,[23],0.5 µg/mL
same,MIC90,[23],0.5 µg/mL
same,MIC50,[24],0.06 µg/mL
same,MIC90,[24],0.5 µg/mL
same,MIC50,[25],8 µg/mL
same,MIC90,[25],16 µg/mL
same,MIC50,[26],0.12 µg/mL
same,MIC90,[26],8 µg/mL
same,MIC50,[27],2 µg/mL
same,MIC90,[27],2 µg/mL
same,MIC,[28],≤ 0.015 µg/mL
same,MIC50,[28],≤ 0.015 µg/mL
same,MIC90,[28],≤ 0.015 µg/mL
same,MIC50,[29],0.12 µg/mL
same,MIC90,[29],0.25 µg/mL
same,MIC50,[30],0.12 µg/mL
same,MIC90,[30],2 µg/mL
same,MIC50,[31],4 µg/mL
same,MIC90,[31],> 16 µg/mL
same,MIC50,[32],1 µg/mL
same,MIC90,[32],> 16 µg/mL
same,MIC50,[33],1 µg/mL
same,MIC90,[33],8 µg/mL
same,MIC50,[34],16 µg/mL
same,MIC90,[34],> 16 µg/mL
same,MIC50,[35],8 µg/mL
same,MIC90,[35],16 µg/mL
same,MIC,[36],≤ 0.015 µg/mL
same,MIC50,[36],≤ 0.015 µg/mL
same,MIC90,[36],≤ 0.015 µg/mL
same,MIC50,[37],0.12 µg/mL
same,MIC90,[37],2 µg/mL
same,MIC50,[38],1 µg/mL
same,MIC90,[38],1 µg/mL
same,MIC50,[39],1 µg/mL
same,MIC90,[39],8 µg/mL
same,MIC50,[40],0.06 µg/mL
same,MIC90,[40],> 16 µg/mL

# From ChEMBL document CHEMBL1629583, “Establishment of in vitro susceptibility testing methodologies and comparative activities of piperacillin in combination with the penem {beta}-lactamase inhibitor BLI-489” (2009)
